Source: US9969742B2, “Imidazotriazinone compounds” (Ironwood Pharmaceuticals, Inc., priority 2012, dated 2018)
Like-named read-outs stand apart in the source and are kept apart here.

How the values were obtained:
Format in all cases: biochemical
PDE9A2 = target: T1, PDE9A2 (Homo sapiens, UniProt O76083); experiment: Phosphodiesterase enzyme screening assay, PDE9A2
T1 construct: purchased Reaction Biology Corporation, Malvern, Pa
Procedure, shortened: (§1)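 Human PDE isoforms were incubated 1 h at room temperature with 4.0 μM fluorescent cGMP substrate in 100 mM HEPES pH 7.5, 5 mM MgCl2, 1 mM DTT, 0.003% Brij. EDTA stop buffer ended reactions, and substrate and 5′-GMP product were separated by microfluidic electrophoretic mobility shift with laser-induced fluorescence. Inhibition was calculated against control wells.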

PDE1B = target: T2, PDE1B (Homo sapiens, UniProt Q01064); experiment: Phosphodiesterase enzyme screening assay, PDE1B
T2 construct: purchased Reaction Biology Corporation, Malvern, Pa
Procedure, shortened: as §1

PDE1A = target: T3, PDE1A (Homo sapiens, UniProt P54750); experiment: Phosphodiesterase enzyme screening assay, PDE1A
T3 construct: purchased Reaction Biology Corporation, Malvern, Pa
Procedure, shortened: as §1

[1] = 4.0 μM cGMP substrate, 1 hour at R.T., read-out: Band (PDE9A2 IC50)
[2] = Table 1, ratio of IC50 values, value greater than 1 indicates greater selectivity for PDE9A2
[3] = ratio of IC50 values, PDE1B versus PDE9A2, value greater than 1 indicates greater selectivity for PDE9A2
[4] = ratio of IC50 values, PDE1A versus PDE9A2, value greater than 1 indicates greater selectivity for PDE9A2
[5] = IC50 band, 4.0 μM cGMP substrate, 1 hour at R.T.
[6] = ratio of IC50 values PDE1B vs PDE9A2, value greater than 1 indicates greater selectivity for PDE9A2
[7] = ratio of IC50 values PDE1A vs PDE9A2, value greater than 1 indicates greater selectivity for PDE9A2

T2 sequence (Q01064 whole entry): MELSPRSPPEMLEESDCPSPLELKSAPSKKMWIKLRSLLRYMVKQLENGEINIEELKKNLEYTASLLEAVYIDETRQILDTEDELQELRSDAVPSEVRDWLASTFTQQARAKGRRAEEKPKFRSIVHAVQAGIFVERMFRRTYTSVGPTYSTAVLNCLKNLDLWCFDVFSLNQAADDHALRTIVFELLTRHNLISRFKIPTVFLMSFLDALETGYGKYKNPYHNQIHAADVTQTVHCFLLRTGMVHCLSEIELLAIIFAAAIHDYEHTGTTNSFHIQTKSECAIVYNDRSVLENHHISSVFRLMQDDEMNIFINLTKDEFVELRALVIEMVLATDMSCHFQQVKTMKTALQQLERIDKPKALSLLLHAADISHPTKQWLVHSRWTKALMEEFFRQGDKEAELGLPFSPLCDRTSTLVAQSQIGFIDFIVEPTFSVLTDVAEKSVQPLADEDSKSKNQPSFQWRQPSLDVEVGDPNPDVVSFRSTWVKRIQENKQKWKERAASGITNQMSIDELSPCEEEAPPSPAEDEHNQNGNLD
T3 sequence (P54750 whole entry): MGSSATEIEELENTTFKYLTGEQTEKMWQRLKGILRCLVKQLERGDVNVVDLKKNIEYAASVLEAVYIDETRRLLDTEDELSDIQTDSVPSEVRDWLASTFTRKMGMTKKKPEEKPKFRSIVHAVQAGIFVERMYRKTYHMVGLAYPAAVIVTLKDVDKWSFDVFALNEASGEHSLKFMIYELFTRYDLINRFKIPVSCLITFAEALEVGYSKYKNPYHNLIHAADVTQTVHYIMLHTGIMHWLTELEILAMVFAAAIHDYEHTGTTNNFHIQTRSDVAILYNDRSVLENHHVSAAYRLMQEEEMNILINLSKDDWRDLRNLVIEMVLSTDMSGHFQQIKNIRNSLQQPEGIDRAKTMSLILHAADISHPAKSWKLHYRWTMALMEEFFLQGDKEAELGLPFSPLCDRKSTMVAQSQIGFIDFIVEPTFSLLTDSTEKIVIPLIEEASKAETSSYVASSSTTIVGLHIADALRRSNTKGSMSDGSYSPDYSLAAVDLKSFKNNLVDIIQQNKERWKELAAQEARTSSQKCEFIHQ
T1 sequence (O76083 1-533 isoform O76083-2): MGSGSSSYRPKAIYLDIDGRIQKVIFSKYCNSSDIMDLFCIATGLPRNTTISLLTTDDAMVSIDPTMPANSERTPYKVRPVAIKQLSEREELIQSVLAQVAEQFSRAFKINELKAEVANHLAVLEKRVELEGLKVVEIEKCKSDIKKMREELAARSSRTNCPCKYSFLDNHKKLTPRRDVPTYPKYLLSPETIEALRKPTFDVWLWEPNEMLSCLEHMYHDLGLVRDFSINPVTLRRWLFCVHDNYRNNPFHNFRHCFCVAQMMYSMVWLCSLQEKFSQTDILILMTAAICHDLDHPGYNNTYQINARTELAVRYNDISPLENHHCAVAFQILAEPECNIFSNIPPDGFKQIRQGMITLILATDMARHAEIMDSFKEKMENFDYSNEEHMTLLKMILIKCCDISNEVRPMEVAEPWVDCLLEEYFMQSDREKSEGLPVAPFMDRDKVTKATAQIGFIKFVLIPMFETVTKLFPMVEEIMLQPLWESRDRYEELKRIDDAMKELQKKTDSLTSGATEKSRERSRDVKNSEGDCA

| SMILES | IC50 (PDE9A2; read-out: Band (PDE9A2 IC50)) [nM] | PDE1B selectivity (versus PDE9A2) (PDE1B; [3]) | PDE1A selectivity (versus PDE9A2) (PDE1A; [4]) | IC50 (PDE9A2; [5]) [nM] | PDE1B selectivity (versus PDE9A2) (PDE1B; [6]) | PDE1A selectivity (versus PDE9A2) (PDE1A; [7]) | other results |
| --- | --- | --- | --- | --- | --- | --- | --- |
| CC1CN(Cc2ccc(F)c(C#N)c2)CC1c1nn2c(C3CCOCC3)ncc2c(=O)[nH]1 (single isomer, unassigned; (+)) [(+)-2-fluoro-5-(((3,4-trans)-3-methyl-4-(4-oxo-7-(tetrahydro-2H-pyran-4-yl)-3,4-dihydroimidazo[5,1-f][1,2,4]triazin-2-yl)pyrrolidin-1-yl)methyl)benzonitrile] |  |  |  |  |  |  | IC50 (PDE9A2; [1]): < 1000 nM; PDE1B selectivity (versus PDE9A2) (PDE1B; ratio of IC50 values PDE1B / PDE9A2, value greater than 1 = greater selectivity for PDE9A2): 58; PDE1A selectivity (versus PDE9A2) (PDE1A; ratio of IC50 values PDE1A / PDE9A2, value greater than 1 = greater selectivity for PDE9A2): 61 |
| CC1CN(Cc2cccc(C#N)c2)CC1c1nn2c(C3CCOCC3)ncc2c(=O)[nH]1 (single isomer, unassigned; (+)) [(+)-3-(((3,4-trans)-3-methyl-4-(4-oxo-7-(tetrahydro-2H-pyran-4-yl)-3,4-dihydroimidazo[5,1-f][1,2,4]triazin-2-yl)pyrrolidin-1-yl)methyl)benzonitrile] |  |  |  |  |  |  | IC50 (PDE9A2; Table 1, 10 concentrations, 4.0 μM cGMP substrate, 1 hour at R.T., read-out: Band (PDE9A2 IC50)): < 1000 nM; PDE1B selectivity (versus PDE9A2) (PDE1B; [2]): 343; PDE1A selectivity (versus PDE9A2) (PDE1A; [2]): 942 |
| CC1CN(Cc2ncccn2)CC1c1nn2c(-c3ccccc3F)ncc2c(=O)[nH]1 (single isomer, unassigned; (+)) [(+)-7-(2-fluorophenyl)-2-((3,4-trans)-4-methyl-1-(pyrimidin-2-ylmethyl)pyrrolidin-3-yl)imidazo[5,1-f][1,2,4]triazin-4(3H)-one] |  |  |  |  |  |  | IC50 (PDE9A2; [1]): < 1000 nM; PDE1B selectivity (versus PDE9A2) (PDE1B; ratio of IC50 values PDE1B / PDE9A2, value greater than 1 indicates greater selectivity for PDE9A2): 39; PDE1A selectivity (versus PDE9A2) (PDE1A; ratio of IC50 values PDE1A / PDE9A2, value greater than 1 indicates greater selectivity for PDE9A2): 19 |
| CC1CN(Cc2ccccn2)CC1c1nn2c(-c3cccc(F)c3)ncc2c(=O)[nH]1 (single isomer, unassigned; (+)) [(+)-7-(3-fluorophenyl)-2-((3,4-trans)-4-methyl-1-(pyridin-2-ylmethyl)pyrrolidin-3-yl)imidazo[5,1-f][1,2,4]triazin-4(3H)-one] | < 1000 | 236 | 190 |  |  |  |  |
| CC1CN(Cc2cccnc2)CC1c1nn2c(-c3cccc(F)c3)ncc2c(=O)[nH]1 (single isomer, unassigned; (+)) [(+)-7-(3-fluorophenyl)-2-((3,4-trans)-4-methyl-1-(pyridin-3-ylmethyl)pyrrolidin-3-yl)imidazo[5,1-f][1,2,4]triazin-4(3H)-one] | < 1000 | 37 | 15 |  |  |  |  |
| Cc1cc(F)c(F)cc1-c1ncc2c(=O)[nH]c(C3CN(Cc4ccc(F)cc4)CC3C)nn12 (single isomer, unassigned; (+)) [(+)-7-(4,5-difluoro-2-methylphenyl)-2-((3,4-trans)-1-(4-fluorobenzyl)-4-methylpyrrolidin-3-yl)imidazo[5,1-f][1,2,4]triazin-4(3H)-one] | < 1000 | 179 | 232 |  |  |  |  |
| Cc1cc(F)c(F)cc1-c1ncc2c(=O)[nH]c(C3CN(Cc4ncccn4)CC3C)nn12 (single isomer, unassigned; (+)) [(+)-7-(4,5-difluoro-2-methylphenyl)-2-((3,4-trans)-4-methyl-1-(pyrimidin-2-ylmethyl)pyrrolidin-3-yl)imidazo[5,1-f][1,2,4]triazin-4(3H)-one] | < 1000 | 85 | 44 |  |  |  |  |
| Cc1cc(F)ccc1-c1ncc2c(=O)[nH]c(C3CN(Cc4ccc(F)cc4)CC3C)nn12 (single isomer, unassigned; (+)) [(+)-7-(4-fluoro-2-methylphenyl)-2-((3,4-trans)-1-(4-fluorobenzyl)-4-methylpyrrolidin-3-yl)imidazo[5,1-f][1,2,4]triazin-4(3H)-one] |  |  |  | < 1000 | 493 | 345 |  |
| Cc1cc(F)ccc1-c1ncc2c(=O)[nH]c(C3CN(Cc4cnccn4)CC3C)nn12 (single isomer, unassigned; (+)) [(+)-7-(4-fluoro-2-methylphenyl)-2-((3,4-trans)-4-methyl-1-(pyrazin-2-ylmethyl)pyrrolidin-3-yl)imidazo[5,1-f][1,2,4]triazin-4(3H)-one] |  |  |  | < 1000 | 393 | 342 |  |
| Cc1cc(F)ccc1-c1ncc2c(=O)[nH]c(C3CN(Cc4ccccn4)CC3C)nn12 (single isomer, unassigned; (+)) [(+)-7-(4-fluoro-2-methylphenyl)-2-((3,4-trans)-4-methyl-1-(pyridin-2-ylmethyl)pyrrolidin-3-yl)imidazo[5,1-f][1,2,4]triazin-4(3H)-one] |  |  |  | < 1000 | 374 | 5780 |  |
| Cc1cc(F)ccc1-c1ncc2c(=O)[nH]c(C3CN(Cc4cccnc4)CC3C)nn12 (single isomer, unassigned; (+)) [(+)-7-(4-fluoro-2-methylphenyl)-2-((3,4-trans)-4-methyl-1-(pyridin-3-ylmethyl)pyrrolidin-3-yl)imidazo[5,1-f][1,2,4]triazin-4(3H)-one] |  |  |  | < 1000 | 492 | 452 |  |
| CC1CN(Cc2cnccn2)CC1c1nn2c(-c3ccc(F)cc3)ncc2c(=O)[nH]1 (single isomer, unassigned; (+)) [(+)-7-(4-fluorophenyl)-2-((3,4-trans)-4-methyl-1-(pyrazin-2-ylmethyl)pyrrolidin-3-yl)imidazo[5,1-f][1,2,4]triazin-4(3H)-one] | < 1000 | 8 | 9 |  |  |  |  |
| Cc1ccc(F)cc1-c1ncc2c(=O)[nH]c(C3CN(Cc4ccc(F)cc4)CC3C)nn12 (single isomer, unassigned; (+)) [(+)-7-(5-fluoro-2-methylphenyl)-2-((3,4-trans)-1-(4-fluorobenzyl)-4-methylpyrrolidin-3-yl)imidazo[5,1-f][1,2,4]triazin-4(3H)-one] |  |  |  | < 1000 | 393 | 1738 |  |

Continued, in another order:

| IC50 (PDE9A2; read-out: Band (PDE9A2 IC50)) [nM] | PDE1B selectivity (versus PDE9A2) (PDE1B; [3]) | PDE1A selectivity (versus PDE9A2) (PDE1A; [4]) | IC50 (PDE9A2; [5]) [nM] | PDE1B selectivity (versus PDE9A2) (PDE1B; [6]) | PDE1A selectivity (versus PDE9A2) (PDE1A; [7]) | SMILES | other results |
| --- | --- | --- | --- | --- | --- | --- | --- |
|  |  |  | < 1000 | 1659 | 405 | CC1CN(Cc2cn3ccccc3n2)CC1c1nn2c(C3CCC(F)(F)CC3)ncc2c(=O)[nH]1 (single isomer, unassigned; (+)) [(+)-7-(4,4-difluorocyclohexyl)-2-((3,4-trans)-1-(imidazo[1,2-a]pyridin-2-ylmethyl)-4-methylpyrrolidin-3-yl)imidazo[5,1-f][1,2,4]triazin-4(3H)-one] |  |
|  |  |  | < 1000 | 575 | 233 | CC1CN(Cc2cnccn2)CC1c1nn2c(C3CCC(F)(F)CC3)ncc2c(=O)[nH]1 (single isomer, unassigned; (+)) [(+)-7-(4,4-difluorocyclohexyl)-2-((3,4-trans)-4-methyl-1-(pyrazin-2-ylmethyl)pyrrolidin-3-yl)imidazo[5,1-f][1,2,4]triazin-4(3H)-one] |  |
|  |  |  | < 1000 | 362 | 167 | CC1CN(Cc2ccccn2)CC1c1nn2c(C3CCC(F)(F)CC3)ncc2c(=O)[nH]1 (single isomer, unassigned; (+)) [(+)-7-(4,4-difluorocyclohexyl)-2-((3,4-trans)-4-methyl-1-(pyridin-2-ylmethyl)pyrrolidin-3-yl)imidazo[5,1-f][1,2,4]triazin-4(3H)-one] |  |
|  |  |  | < 1000 | 409 | 181 | CC1CN(Cc2cccnc2)CC1c1nn2c(C3CCC(F)(F)CC3)ncc2c(=O)[nH]1 (single isomer, unassigned; (+)) [(+)-7-(4,4-difluorocyclohexyl)-2-((3,4-trans)-4-methyl-1-(pyridin-3-ylmethyl)pyrrolidin-3-yl)imidazo[5,1-f][1,2,4]triazin-4(3H)-one] |  |
| < 1000 | 9350 | 2510 |  |  |  | Cc1cc(F)c(F)cc1-c1ncc2c(=O)[nH]c(C3CN(Cc4cn5ccccc5n4)CC3C)nn12 (single isomer, unassigned; (+)) [(+)-7-(4,5-difluoro-2-methylphenyl)-2-((3,4-trans)-1-(imidazo[1,2-a]pyridin-2-ylmethyl)-4-methylpyrrolidin-3-yl)imidazo[5,1-f][1,2,4]triazin-4(3H)-one] |  |
|  |  |  | < 1000 | 792 | 339 | Cc1cc(F)ccc1-c1ncc2c(=O)[nH]c(C3CN(Cc4cn5ccccc5n4)CC3C)nn12 (single isomer, unassigned; (+)) [(+)-7-(4-fluoro-2-methylphenyl)-2-((3,4-trans)-1-(imidazo[1,2-a]pyridin-2-ylmethyl)-4-methylpyrrolidin-3-yl)imidazo[5,1-f][1,2,4]triazin-4(3H)-one] |  |
| < 1000 | 209 | 120 |  |  |  | CC1CN(Cc2cn3ccccc3n2)CC1c1nn2c(-c3ccc(F)cc3)ncc2c(=O)[nH]1 (single isomer, unassigned; (+)) [(+)-7-(4-fluorophenyl)-2-((3,4-trans)-1-(imidazo[1,2-a]pyridin-2-ylmethyl)-4-methylpyrrolidin-3-yl)imidazo[5,1-f][1,2,4]triazin-4(3H)-one] |  |
